Measurements published in patent US8791079B2, “Methods for treating heart failure by inhibiting the mitochondrial sodium-calcium exchanger (mNCE)” (priority 2009, dated 2014).

Legend:
[1] = system: Guinea pig ventricular myocytes; test: ROS / oxidative stress (CM-H2DCFDA, CM-DCF oxidation) in isolated myocytes; type: cell-based; conditions: 100-nM isoproterenol with 1-μM ouabain, without or with 1-μM CGP-37157; 1-Hz stimulation
Experimental: (§1) Guinea pig ventricular myocytes were isolated by enzymatic digestion as described previously. O'Rourke, B., et al., “Oscillations of membrane current and excitability driven by metabolic oscillations in heart cells,” Science, 265(5174):962-966 (Aug. 12, 1994). Cells were suspended in Dulbecco's Modification of Eagle's Medium (DMEM) supplemented with 5% fetal bovine serum, 1% penicillin/streptomycin, and 15 mmol/L HEPES, pH 7.4, and stored in a 5% CO2 incubator at 37° C.
(§2) Cytosolic Ca^2+ ([Ca^2+]c), mitochondrial Ca^2+ ([Ca^2+]m), and [Na^+]i were measured with the fluorescent indicators indo-1, rhod-2, and sodium-binding benzofuran isophthalate (SBFI), respectively (Invitrogen, Carlsbad, Calif.), and mitochondrial NADH was measured as the cellular autofluorescence with 360-nm excitation/450-nm emission. Indo-1 was loaded into cell with the membrane permeable form, indo-1 AM. To minimize indo-1 loading into the mitochondrial compartment, cells were briefly incubated with indo-1 AM at room temperature for 20 min. Rhod-2 and SBFI experiments were carried out as previously described. Maack et al., supra, Liu and O'Rourke, supra. […]
(§3) Isolated ventricular myocytes were loaded into a heated field-stimulation chamber (Warner Instruments, Hamden, Conn.) at 37° C. on the stage of a fluorescence microscope (Nikon Eclipse TE300, Nikon Instruments, Inc., Melville, N.Y.). […]

Guinea pig hearts [2] = test: Oxygen consumption in isolated perfused hearts
Source text: (§4) Guinea pig hearts were quickly excised under anesthesia and mounted on a modified Langendorff apparatus attached to a Powerlab system (AD Instruments, Colorado Springs, Colo.). Hearts were perfused with gassed (95/5% O2/CO2) control buffer containing: 118-mM NaCl, 24-mM NaHCO3, 1.2-mM KH2PO4, 4.75-mM KCl, 1.2-mM MgSO4, 2.0-mM CaCl2, and 10-mM glucose. A buffer-filled latex balloon (Harvard apparatus) was inserted through the mitral valve into the left ventricle. Hearts were suspended in a buffer-filled heating chamber maintained at 37° C. and two electrodes were placed into the bath for volume-conducted electrocardiogram recordings. Heart rate, left ventricular developed pressure (LVDP), maximal rates of contraction and relaxation (±dP/dt), oxygen consumption, and electrocardiograms (ECG) were recorded on a computer. After a ten-minute equilibration period, hearts were subjected to the following protocol: ten-minute baseline recording while the heart was perfused with control buffer, ten-minute recording while 0.25-μM ouabain with or without 1 μM CGP-37157, and sixty-minute recording while hearts were stimulated with 25-nM isoproterenol. The measurements of hemodynamic parameters were determined by taking the average during the last two minutes before ouabain treatment (baseline) and for two minutes during the maximal effect on LVDP of either ouabain or isoproterenol.
Cardiac O2 concentration was measured with an O2 probe attached to a PowerLab system (AD Instruments). The probe was calibrated with 95% O2-saturated buffer as 100% and 100% N2-saturated buffer as 0%. The molar concentration of O2 consumption was calculated from percentage concentration with the following equation: VO2(μmol/min/g dwt)=CF×(0.02373/22.414)×((760−p)/760)×(ΔO2%/100)/dwt
where CF is coronary flow (mL/min); 0.02373 is the absorption coefficient of O2 in H2O at 37° C.; 22.414 is the volume (L) of 1 mol gas at STP; 760 is 1 atm in mm Hg; p equals 47.067, which is the vapor pressure of H2O at 37° C.; ΔO2% is the difference in O2 percentage concentration between inflow buffer collected from cannula before heart was mounted and outflow buffer collected from pulmonary artery; dwt is dry heart weight.

[3] = system: Guinea pig ventricular myocytes; test: Mitochondrial NADH autofluorescence in isolated myocytes during 1-Hz stimulation; type: cell-based; conditions: 1-μM ouabain + 100-nM isoproterenol, without (ouabain) or with 1 μM CGP-37157; for NADH level before stimulation: before 1-Hz stimulation; for NADH level by the end of stimulation: end of 1-Hz stimulation (three minutes)
Experimental: as §1
Cytosolic Ca^2+ ([Ca^2+]c), mitochondrial Ca^2+ ([Ca^2+]m), and [Na^+]i were measured with the fluorescent indicators indo-1, rhod-2, and sodium-binding benzofuran isophthalate (SBFI), respectively (Invitrogen, Carlsbad, Calif.), and mitochondrial NADH was measured as the cellular autofluorescence with 360-nm excitation/450-nm emission. Indo-1 was loaded into cell with the membrane permeable form, indo-1 AM. To minimize indo-1 loading into the mitochondrial compartment, cells were briefly incubated with indo-1 AM at room temperature for 20 min. Rhod-2 and SBFI experiments were carried out as previously described. Maack et al., supra, Liu and O'Rourke, supra. Cytoplasmic rhod-2 was eliminated by using rhod-2-free patch pipettes. Maack et al., supra, Liu and O'Rourke, supra. The ROS-sensitive fluorescent probe 5-(−6)-chloromethyl-2′,7′-dichlorohydrofluorescein diacetate (CM-H2DCFDA) was used to monitor the extent of oxidative stress, as previously described. Aon, M. A., et al., “Synchronized whole cell oscillations in mitochondrial metabolism triggered by a local release of reactive oxygen species in cardiac myocytes,” J. Biol. Chem., 278(45):44735-44744 (Nov. 7, 2003). This probe is primarily localized in the mitochondrial matrix, see Aon et al., supra, and is oxidized by hydrogen peroxide to yield fluorescent CM-DCF, thus indirectly reporting mitochondrial superoxide production.
Isolated ventricular myocytes were loaded into a heated field-stimulation chamber (Warner Instruments, Hamden, Conn.) at 37° C. on the stage of a fluorescence microscope (Nikon Eclipse TE300, Nikon Instruments, Inc., Melville, N.Y.). The myocytes were first superfused with control Tyrode's solution containing: NaCl (130 mmol/L), KCl (5 mmol/L), MgCl2 (1 mmol/L), Na-HEPES (10 mmol/L), CaCl2 (2 mmol/L), glucose (10 mmol/L), at pH 7.4. After one minute of recording in the absence of electrical stimulation in control buffer, 1-μM ouabain and 100-nM isoproterenol, with or without 1 μM CGP-37157, were added to buffer. After another five minutes of recording, myocytes were field-stimulated at 1 Hz for three minutes followed by a two-minute recording after returning to the resting state. To record [Ca^2+]m and action potentials, myocytes were whole-cell patch-clamped at 37° C. […]

Guinea pig hearts [4] = test: Hemodynamics of isolated perfused hearts (Langendorff)
Source text: as §4
In Table 1A-1C, hemodynamics of isolated perfused hearts were recorded at baseline, with ouabain treatment (1 μM), and with ouabain plus isoproterenol (100 nM) stimulation with or without CGP-37157 (1 μM). HR, heart rate; LVDP, left ventricular developed pressure; Oua: ouabain; CGP: CGP-37157; VF: ventricular fibrillation. *p<0.05 compared to group without CGP; † p<0.05 compared to baseline.

[5] = system: Guinea pig ventricular myocytes; test: [Na+]i recording with SBFI in isolated cardiac myocytes; type: cell-based; conditions: ouabain at different concentrations, at rest or with 1-Hz stimulation
Experimental: as §1, §2, §3

[6] = after ten minutes treatment of ouabain, without or with CGP-37157
[7] = 25-nM isoproterenol in ouabain-treated hearts, absence (isoproterenol) or presence of CGP-37157
[8] = at baseline, group with CGP-37157
[9] = ouabain application, without or with CGP-37157
[10] = with ouabain treatment (1 μM, 0.25-μM), −CGP = ouabain alone, +CGP = plus CGP-37157 1 μM
[11] = with ouabain treatment and isoproterenol stimulation, −CGP without, +CGP with CGP-37157 1 μM

## O=C1CSC(c2ccccc2Cl)c2cc(Cl)ccc2N1 (centres unmarked) [CGP-37157, 7-chloro-5-(2-chlorophenyl)-1,5-dihydro-4,1-benzothiazepin-2(3H)-one]
[1]
  oxidation of CM-DCF (oxidative stress): abolished the increase in oxidative stress induced by ouabain
Guinea pig hearts [2]; [6]
  increase of whole-heart oxygen consumption (VO2) compared to baseline: 32%
Guinea pig hearts [2]; ouabain followed by isoproterenol, without (isoproterenol) or with CGP-37157
  increase of whole-heart oxygen consumption (VO2) compared to baseline: 53%
[3]
  NADH level before stimulation: 78.3±3.2%
  NADH level by the end of stimulation: 80.6±2.5%
Guinea pig hearts [4]; [7]
  increase of +dP/dt compared to the level with ouabain treatment: 75%
  increase of LVDP compared to the level with ouabain treatment: 30%
  increase of heart rate (HR) compared to the level with ouabain treatment: 23%
  increase of −dP/dt compared to the level with ouabain treatment: 53%
Guinea pig hearts [4]; [8]
  +dP/dt: 2326 ± 303
  HR: 239.3 ± 8.0
  LVDP: 91.9 ± 10.6
  −dP/dt: −1872 ± 163
Guinea pig hearts [4]; [9]
  increase of +dP/dt compared to baseline: approximately 36%
  increase of −dP/dt compared to baseline: approximately 23%
Guinea pig hearts [4]; [10]
  +dP/dt: 3167 ± 481 †
  HR: 250.0 ± 13.4
  LVDP: 100.7 ± 12.0 †
  −dP/dt: −2306 ± 218 †
Guinea pig hearts [4]; [11]
  +dP/dt: 5530 ± 736 † *
  HR: 306.7 ± 22.8 †
  LVDP: 130.9 ± 18.4 †
  −dP/dt: −3518 ± 419 †

## C[C@@H]1O[C@@H](O[C@H]2C[C@@H](O)[C@]3(CO)[C@H]4[C@H](O)C[C@]5(C)[C@@H](C6=CC(=O)OC6)CC[C@]5(O)[C@@H]4CC[C@]3(O)C2)[C@H](O)[C@H](O)[C@H]1O [ouabain, 1β,3β,5β,11α,14,19-Hexahydroxycard-20(22)-enolide 3-(6-deoxy-α-L-mannopyranoside, reference compound]
[1]
  oxidation of CM-DCF (oxidative stress): higher rates of oxidation of CM-DCF
Guinea pig hearts [2]; [6]
  increase of whole-heart oxygen consumption (VO2) compared to baseline: 18%
[3]
  NADH level before stimulation: 81.7±1.8%
  NADH level by the end of stimulation: 52.3±5.7%
Guinea pig hearts [4]; [9]
  increase of +dP/dt compared to baseline: 20%
  increase of LVDP compared to baseline: 13%
  increase of −dP/dt compared to baseline: 4%
Guinea pig hearts [4]; [10]
  +dP/dt: 2241 ± 376 †
  HR: 246.3 ± 20.3
  LVDP: 106.0 ± 17.0 †
  −dP/dt: −1855 ± 229 †
Guinea pig hearts [4]; [11]
  +dP/dt: 3529 ± 644 †
  HR: 315.3 ± 25.0 †
  LVDP: 100.4 ± 18.3
[5]
  [Na+]i: elevated [Na^+]i monotonically in a dose-dependent way
